The nature of assay [1]: Luminescence Cell-Based/Microorganism Confirmation at Dose of Inhibitors of Trypanosoma cruzi Infection. [Related pubchem assays: 1885, 1968 ]. It counts as functional.
The nature of assay [2]: A375 melanoma cell cytotoxicity, dose response, counter-screen for MITF inhibitor project, CellTiter-Glo luminescence, dry powder, set 2 (AID 624489).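 Further: actives are compounds lowering A375 viability meaning general cytotoxicity.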 It counts as functional, cell-based. The following applies: A-375.
For assay [3], the target named is Nucleotide-binding oligomerization domain-containing protein 2 (Homo sapiens, UniProt Q9HC29). Briefly: NOD2 signaling inhibitors, cell-based, luminescence, uHTS, HEK293 (AID 1566). Type of assay: functional.
For assay [4], the system named is Streptococcus sp. 'group A'. In words: growth inhibition of control SK(-) GAS strain, dose response, counter-screen for streptokinase expression inhibitor project, luminescence, kanamycin, BacTiterGlo, confirmation (AID 1900). It counts as functional, organism-based.
Assay [5] addresses T1, Zinc finger protein mex-5 (Caenorhabditis elegans, UniProt Q9XUB2).
T1 sequence (Q9XUB2 whole entry): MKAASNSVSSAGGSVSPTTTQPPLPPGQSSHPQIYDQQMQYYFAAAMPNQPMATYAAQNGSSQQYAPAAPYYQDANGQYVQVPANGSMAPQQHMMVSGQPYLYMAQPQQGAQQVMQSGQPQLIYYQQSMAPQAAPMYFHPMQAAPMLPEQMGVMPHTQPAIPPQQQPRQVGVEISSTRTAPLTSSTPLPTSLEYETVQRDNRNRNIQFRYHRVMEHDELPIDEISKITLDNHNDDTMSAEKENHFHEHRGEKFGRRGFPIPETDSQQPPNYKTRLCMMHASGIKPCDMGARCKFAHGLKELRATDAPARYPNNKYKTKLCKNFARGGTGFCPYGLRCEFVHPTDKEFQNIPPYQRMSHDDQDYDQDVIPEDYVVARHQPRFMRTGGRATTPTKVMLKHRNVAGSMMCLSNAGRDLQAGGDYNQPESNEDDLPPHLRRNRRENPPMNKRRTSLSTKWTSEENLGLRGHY
In words: MEX-5/TCR-2 RNA interaction inhibitors, dose response, biochemical, C. elegans, fluorescence polarization (AID 1960).

The target in assay [6] is T2, RNA-binding protein pos-1 (Caenorhabditis elegans, UniProt G5EF15).
T2 sequence (G5EF15 whole entry): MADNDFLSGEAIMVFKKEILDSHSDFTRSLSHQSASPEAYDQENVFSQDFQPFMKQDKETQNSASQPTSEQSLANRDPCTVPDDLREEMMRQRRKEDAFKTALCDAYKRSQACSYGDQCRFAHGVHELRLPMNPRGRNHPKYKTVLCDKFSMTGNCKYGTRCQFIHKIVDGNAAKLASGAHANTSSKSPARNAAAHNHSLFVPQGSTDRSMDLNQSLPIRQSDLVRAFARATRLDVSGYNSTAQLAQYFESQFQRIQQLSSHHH
In words: inhibitors of POS-1/mex-3 RNA binding, dose response, biochemical, fluorescence polarization (AID 1964).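 Further: purified POS-1 fused to maltose binding protein made in E. coli; potency of compounds blocking POS-1 binding to fluorescent RNA.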

The nature of assay [7]: BHK-21 cell cytotoxicity, cytotoxicity control for flavivirus guanylyltransferase probe project, secondary screen (AID 624078). It counts as functional.
For the next assay, the target named is T3, Hexokinase HKDC1 (Homo sapiens, UniProt Q2TB90).
T3 sequence (Q2TB90 whole entry): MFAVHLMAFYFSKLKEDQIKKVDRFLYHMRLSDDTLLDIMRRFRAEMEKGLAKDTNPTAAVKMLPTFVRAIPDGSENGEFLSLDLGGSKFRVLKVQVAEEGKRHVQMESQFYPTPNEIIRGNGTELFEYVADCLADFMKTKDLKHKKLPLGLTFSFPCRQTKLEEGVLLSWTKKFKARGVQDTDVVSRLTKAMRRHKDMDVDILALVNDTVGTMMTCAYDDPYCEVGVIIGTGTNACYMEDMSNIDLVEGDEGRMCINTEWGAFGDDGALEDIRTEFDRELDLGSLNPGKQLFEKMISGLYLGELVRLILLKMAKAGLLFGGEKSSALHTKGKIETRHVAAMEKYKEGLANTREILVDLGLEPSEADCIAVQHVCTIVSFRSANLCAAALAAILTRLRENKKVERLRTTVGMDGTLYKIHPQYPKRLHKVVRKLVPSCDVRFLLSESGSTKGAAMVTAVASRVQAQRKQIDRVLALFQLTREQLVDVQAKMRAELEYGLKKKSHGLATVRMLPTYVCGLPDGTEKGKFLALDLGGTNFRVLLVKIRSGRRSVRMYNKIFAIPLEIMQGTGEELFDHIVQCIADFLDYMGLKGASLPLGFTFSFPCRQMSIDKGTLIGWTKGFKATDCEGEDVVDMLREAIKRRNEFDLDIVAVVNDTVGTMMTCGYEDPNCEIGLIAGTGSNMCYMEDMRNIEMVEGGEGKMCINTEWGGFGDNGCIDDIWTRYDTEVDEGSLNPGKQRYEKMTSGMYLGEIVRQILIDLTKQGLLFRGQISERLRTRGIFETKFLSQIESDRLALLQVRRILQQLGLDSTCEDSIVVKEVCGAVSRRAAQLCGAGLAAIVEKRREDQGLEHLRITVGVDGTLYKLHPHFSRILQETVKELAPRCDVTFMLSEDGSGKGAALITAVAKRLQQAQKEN
In words: HKDC1 hexokinase activators, dose response, biochemical, W721R variant (AID 504730). Type of assay: functional.

The next assay concerns the target T4, Protein skinhead-1 (Caenorhabditis elegans, UniProt P34707).
T4 sequence (P34707 whole entry): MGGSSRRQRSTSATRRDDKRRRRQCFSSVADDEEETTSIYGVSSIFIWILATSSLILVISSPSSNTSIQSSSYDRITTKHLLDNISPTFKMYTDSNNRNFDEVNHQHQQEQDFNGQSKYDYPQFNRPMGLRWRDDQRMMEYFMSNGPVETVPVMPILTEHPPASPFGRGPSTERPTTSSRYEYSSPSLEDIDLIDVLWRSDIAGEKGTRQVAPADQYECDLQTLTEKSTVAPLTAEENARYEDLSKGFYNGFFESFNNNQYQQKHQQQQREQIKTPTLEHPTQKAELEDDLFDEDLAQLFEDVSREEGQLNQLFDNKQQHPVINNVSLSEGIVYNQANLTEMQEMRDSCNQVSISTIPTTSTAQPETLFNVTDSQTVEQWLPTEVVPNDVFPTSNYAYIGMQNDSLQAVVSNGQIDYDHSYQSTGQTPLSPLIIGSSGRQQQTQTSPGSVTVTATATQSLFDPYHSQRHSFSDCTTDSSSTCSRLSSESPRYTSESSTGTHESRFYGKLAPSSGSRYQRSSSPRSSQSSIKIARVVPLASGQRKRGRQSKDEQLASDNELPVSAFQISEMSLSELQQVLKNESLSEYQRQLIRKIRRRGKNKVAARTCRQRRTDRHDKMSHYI
Type of assay: functional.

The next assay addresses NS3 (Hepatitis C virus, UniProt A3EZJ3). Briefly: PubChem AID 2173. On the set-up: species or system Hepacivirus hominis.
Assay [8] has as its target Sphingosine 1-phosphate receptor 1 (Homo sapiens, UniProt P21453). Type of assay: functional.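 Further: Tango beta-arrestin reporter U2OS cells stimulated with S1P near its EC80; inhibitor potency meaning antagonism of receptor activation by the natural agonist.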
For another assay, the target named is Fatty acid synthase (Homo sapiens, UniProt P49327). In words: FAS thioesterase domain inhibitors, dose response, biochemical, endpoint fluorescence intensity, uHTS hits (AID 624327).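 Further: fluorescence from hydrolysis of an O-methyl fluorescein acyl ester substrate by the enzyme.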 It counts as functional.
Assay [9] can be described thus: cytotoxicity in HEK-293T cells, dose response, cytotoxicity control for TCR NF-kB inhibitor project, luminescence, T-cell screen hits (AID 489026).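 Further: cells exposed to compound about 14 hours before the viability readout.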 It counts as functional, cell-based.

This note sets out measurements from ChEMBL document CHEMBL1201862, “PubChem BioAssay data set” (2004).

Each structure is given as a SMILES string. Activity calls are given as the source filed them.

Chain of Nucleotide-binding oligomerization domain-containing protein 2 (Q9HC29 whole entry, the tested form may be a part): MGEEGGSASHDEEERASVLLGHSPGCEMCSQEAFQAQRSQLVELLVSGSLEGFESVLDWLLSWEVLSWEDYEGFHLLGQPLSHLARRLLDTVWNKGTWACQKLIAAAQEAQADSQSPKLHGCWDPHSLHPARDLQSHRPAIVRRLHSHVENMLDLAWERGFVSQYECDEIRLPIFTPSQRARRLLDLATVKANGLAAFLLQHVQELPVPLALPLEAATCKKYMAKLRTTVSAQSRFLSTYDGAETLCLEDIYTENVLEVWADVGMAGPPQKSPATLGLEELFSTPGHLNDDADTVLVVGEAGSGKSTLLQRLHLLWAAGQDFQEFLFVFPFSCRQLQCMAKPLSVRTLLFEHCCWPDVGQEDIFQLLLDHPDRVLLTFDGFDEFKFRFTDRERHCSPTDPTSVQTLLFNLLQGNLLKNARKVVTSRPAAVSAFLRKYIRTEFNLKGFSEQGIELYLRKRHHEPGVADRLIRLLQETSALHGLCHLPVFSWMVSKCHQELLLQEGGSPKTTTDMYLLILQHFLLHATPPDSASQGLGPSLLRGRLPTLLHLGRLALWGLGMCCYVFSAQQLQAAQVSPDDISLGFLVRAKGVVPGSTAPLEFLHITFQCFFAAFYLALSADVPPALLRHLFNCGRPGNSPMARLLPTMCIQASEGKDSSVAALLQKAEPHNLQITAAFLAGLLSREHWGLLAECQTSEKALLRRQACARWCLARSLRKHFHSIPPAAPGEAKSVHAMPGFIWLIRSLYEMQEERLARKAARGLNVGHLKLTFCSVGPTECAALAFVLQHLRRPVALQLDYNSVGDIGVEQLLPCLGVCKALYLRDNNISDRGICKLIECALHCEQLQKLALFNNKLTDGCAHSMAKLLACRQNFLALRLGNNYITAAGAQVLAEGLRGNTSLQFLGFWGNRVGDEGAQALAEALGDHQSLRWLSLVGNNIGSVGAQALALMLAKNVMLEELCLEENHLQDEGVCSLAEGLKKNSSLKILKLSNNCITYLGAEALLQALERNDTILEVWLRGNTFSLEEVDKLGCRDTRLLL
Chain of Fatty acid synthase (P49327 whole entry, the tested form may be a part): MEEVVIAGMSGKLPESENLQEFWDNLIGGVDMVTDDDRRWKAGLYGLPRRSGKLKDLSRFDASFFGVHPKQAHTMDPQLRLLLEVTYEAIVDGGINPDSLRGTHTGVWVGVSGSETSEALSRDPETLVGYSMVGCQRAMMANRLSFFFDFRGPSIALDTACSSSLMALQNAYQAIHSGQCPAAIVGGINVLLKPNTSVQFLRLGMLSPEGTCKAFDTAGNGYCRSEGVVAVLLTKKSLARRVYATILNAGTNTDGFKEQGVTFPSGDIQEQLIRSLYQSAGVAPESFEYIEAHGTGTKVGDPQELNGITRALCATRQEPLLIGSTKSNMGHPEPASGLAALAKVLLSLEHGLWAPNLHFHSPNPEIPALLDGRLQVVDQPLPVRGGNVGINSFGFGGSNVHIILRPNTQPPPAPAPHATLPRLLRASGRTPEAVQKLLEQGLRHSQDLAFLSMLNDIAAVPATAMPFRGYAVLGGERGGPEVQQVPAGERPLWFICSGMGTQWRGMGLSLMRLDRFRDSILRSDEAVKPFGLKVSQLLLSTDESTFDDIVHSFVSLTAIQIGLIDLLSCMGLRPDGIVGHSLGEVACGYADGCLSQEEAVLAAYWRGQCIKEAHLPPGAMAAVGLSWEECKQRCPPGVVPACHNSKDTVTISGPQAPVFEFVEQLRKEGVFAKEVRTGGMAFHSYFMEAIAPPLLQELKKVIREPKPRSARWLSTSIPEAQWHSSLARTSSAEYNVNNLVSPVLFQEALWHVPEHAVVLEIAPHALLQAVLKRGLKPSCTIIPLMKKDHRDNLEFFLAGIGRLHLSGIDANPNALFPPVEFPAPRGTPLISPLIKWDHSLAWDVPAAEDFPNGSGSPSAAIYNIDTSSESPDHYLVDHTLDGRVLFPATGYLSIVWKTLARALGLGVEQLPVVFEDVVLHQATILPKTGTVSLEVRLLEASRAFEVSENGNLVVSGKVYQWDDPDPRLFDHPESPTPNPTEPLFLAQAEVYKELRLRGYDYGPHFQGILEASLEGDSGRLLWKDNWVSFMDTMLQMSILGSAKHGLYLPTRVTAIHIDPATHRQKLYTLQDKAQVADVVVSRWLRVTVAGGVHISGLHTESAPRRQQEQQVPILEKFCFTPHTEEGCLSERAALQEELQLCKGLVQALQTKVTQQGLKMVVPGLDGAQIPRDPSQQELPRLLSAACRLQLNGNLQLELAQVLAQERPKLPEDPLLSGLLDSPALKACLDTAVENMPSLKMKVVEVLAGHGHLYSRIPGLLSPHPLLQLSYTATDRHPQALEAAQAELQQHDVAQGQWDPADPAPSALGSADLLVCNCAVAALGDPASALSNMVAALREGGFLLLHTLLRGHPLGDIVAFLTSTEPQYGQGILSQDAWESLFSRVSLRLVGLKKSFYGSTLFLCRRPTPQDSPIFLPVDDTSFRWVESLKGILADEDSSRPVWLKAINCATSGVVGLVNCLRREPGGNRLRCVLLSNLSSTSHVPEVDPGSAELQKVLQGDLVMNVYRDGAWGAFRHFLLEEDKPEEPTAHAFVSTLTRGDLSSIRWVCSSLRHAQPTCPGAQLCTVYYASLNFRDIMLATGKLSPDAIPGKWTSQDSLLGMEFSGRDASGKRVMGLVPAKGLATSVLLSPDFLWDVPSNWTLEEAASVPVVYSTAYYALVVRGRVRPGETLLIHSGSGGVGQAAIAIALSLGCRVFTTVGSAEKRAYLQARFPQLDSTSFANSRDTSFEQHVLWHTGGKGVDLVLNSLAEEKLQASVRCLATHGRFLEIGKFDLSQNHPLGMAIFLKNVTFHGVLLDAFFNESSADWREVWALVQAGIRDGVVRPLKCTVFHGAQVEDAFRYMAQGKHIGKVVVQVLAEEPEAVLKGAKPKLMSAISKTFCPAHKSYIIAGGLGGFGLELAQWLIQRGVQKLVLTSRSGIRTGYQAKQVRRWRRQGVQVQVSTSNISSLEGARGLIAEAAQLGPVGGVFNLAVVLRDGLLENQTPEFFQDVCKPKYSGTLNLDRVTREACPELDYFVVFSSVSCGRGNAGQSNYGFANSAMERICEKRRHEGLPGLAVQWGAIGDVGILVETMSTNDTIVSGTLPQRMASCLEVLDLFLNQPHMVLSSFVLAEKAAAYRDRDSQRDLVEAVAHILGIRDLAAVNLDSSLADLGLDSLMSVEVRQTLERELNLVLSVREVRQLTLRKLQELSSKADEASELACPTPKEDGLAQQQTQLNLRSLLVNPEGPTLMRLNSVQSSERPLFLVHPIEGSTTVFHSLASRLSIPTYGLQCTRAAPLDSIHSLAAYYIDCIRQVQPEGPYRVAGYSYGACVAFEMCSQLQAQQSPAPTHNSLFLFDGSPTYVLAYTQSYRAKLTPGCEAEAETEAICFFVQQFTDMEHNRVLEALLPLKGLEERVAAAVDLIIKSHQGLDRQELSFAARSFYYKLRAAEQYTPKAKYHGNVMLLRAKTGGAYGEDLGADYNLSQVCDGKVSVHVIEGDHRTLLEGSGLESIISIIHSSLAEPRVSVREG
Chain of NS3 (A3EZJ3 whole entry): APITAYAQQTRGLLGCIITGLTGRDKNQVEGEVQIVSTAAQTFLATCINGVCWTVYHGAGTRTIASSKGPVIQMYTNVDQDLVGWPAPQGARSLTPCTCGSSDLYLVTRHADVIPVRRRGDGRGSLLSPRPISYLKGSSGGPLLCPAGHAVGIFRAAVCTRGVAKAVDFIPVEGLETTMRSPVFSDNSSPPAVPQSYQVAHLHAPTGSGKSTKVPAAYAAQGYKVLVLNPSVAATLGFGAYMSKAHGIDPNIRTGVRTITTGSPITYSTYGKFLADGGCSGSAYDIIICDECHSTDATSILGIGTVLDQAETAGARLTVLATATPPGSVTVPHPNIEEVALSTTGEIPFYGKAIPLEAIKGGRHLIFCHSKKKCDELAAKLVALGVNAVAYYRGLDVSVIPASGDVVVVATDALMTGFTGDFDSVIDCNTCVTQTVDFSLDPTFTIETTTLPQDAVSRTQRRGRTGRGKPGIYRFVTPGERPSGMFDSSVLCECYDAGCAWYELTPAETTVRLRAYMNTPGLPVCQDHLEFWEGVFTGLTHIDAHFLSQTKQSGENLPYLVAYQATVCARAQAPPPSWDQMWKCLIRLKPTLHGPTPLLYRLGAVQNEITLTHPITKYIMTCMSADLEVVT
Chain of Sphingosine 1-phosphate receptor 1 (P21453 whole entry, the tested form may be a part): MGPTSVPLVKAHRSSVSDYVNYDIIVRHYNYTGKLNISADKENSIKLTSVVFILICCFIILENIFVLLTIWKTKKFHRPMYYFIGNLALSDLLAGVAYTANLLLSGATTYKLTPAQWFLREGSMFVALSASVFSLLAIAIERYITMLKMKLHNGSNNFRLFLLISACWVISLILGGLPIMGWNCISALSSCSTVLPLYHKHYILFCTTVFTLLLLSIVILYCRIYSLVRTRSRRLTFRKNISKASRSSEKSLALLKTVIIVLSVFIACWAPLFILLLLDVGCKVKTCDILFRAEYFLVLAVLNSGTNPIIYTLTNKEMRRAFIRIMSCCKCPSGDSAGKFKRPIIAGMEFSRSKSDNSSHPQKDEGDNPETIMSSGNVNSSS

With `O=C(CNc1cccc2ccccc12)N/N=C/c1ccc([N+](=O)[O-])o1`, the EC50 in assay [1] is 0.022 µM (active); in assay [3], 5.55 µM (active); in assay [4] it was 0.901 µM (active). Also, the AC50 in assay [2] is > 70 µM (inactive).

Consider `O=C(O)CSc1cc(NS(=O)(=O)c2ccc(Br)cc2)c2ccccc2c1O`, for which the figures for the EC50 in assay [5] and in [6] were 8.17 µM (active) and 20.7 µM (active), respectively. For the same compound, in [7], the CC50 was 7.81 µM (active).

Take `O=C1NC(=S)N/C1=C/c1cc2c(cc1[N+](=O)[O-])OCO2`: on Hexokinase HKDC1, the EC50 is > 80 µM (inactive).

As to `O=C(CC(O)(C(F)(F)F)C(F)(F)F)Nc1ccc(Cl)c(Cl)c1`, on Protein skinhead-1, the IC50 is 19.6 µM (active).

Regarding `Cc1ccc(NC(=O)C2=C(c3ccccc3)S(=O)(=O)CCS2(=O)=O)cc1`, the IC50 was 9.23 µM (active) at NS3, 68.8 µM (not active) in [8], 3.96 µM (active) on Fatty acid synthase and > 80 µM (inactive) in assay [9].
